Reference: patent US9029325B2, “Amylin analogues and pharmaceutical compositions thereof” (Novo Nordisk A/S, priority 2011, dated 2015)
Starred links: 1 amine or outer side, 2 acyl side, 3 side chain; linkers in the order of their positions; H or OH if unused. Positions of bridges follow the written chain, without caps; N, C: chain ends. Residues, ends and D or L forms follow the SMILES beside them. *: point of attachment. C20 diacid = O=C(O)CCCCCCCCCCCCCCCCCCC(=O)*; C18 diacid = O=C(O)CCCCCCCCCCCCCCCCC(=O)*; γGlu = O=C(O)[C@H](CCC(=O)[*:2])N[*:1]

Assay: Assay (I) efficacy testing on appetite (food intake), ad libitum fed rat model
Format: in vivo, Sprague Dawley (SD) rats
How it was run: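 Ad libitum fed SD rats (200-250 g) on a reversed light cycle, housed individually, received a single 0.01-3 mg/kg dose ip, po or sc just before lights-off. Individual food intake recorded hourly for 7 h, then at 24 h and sometimes 48 h, versus vehicle; Grubbs outliers excluded.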

Structure (SMILES)	Food intake reduction 0-24 h 3 nmol/kg (%) (0-24 h)	Food intake reduction 24-48 h 3 nmol/kg (%) (24-48 h)	Food intake reduction 0-24 h 30 nmol/kg (%) (30 nmol/kg, 0-24 h)	Food intake reduction 24-48 h 30 nmol/kg (%) (30 nmol/kg, 24-48 h)
CC[C@H](C)[C@H](NC(=O)[C@@H]1CCCN1C(=O)CNC(=O)[C@H](Cc1ccccc1)NC(=O)[C@H](CC(N)=O)NC(=O)[C@H](CC(N)=O)NC(=O)[C@H](CO)NC(=O)[C@H](CO)NC(=O)[C@H](Cc1c[nH]cn1)NC(=O)[C@H](Cc1c[nH]cn1)NC(=O)[C@H](CC(C)C)NC(=O)[C@H](Cc1ccccc1)NC(=O)[C@H](CCC(=O)O)NC(=O)[C@H](C)NC(=O)[C@H](CC(C)C)NC(=O)[C@H](CCCNC(=N)N)NC(=O)[C@H](CCC(N)=O)NC(=O)[C@@H](NC(=O)[C@H](C)NC(=O)[C@@H]1CSSC[C@H](NC(=O)[C@H](Cc2c[nH]cn2)NC(=O)[C@H](Cc2c[nH]cn2)NC(=O)[C@H](Cc2c[nH]cn2)NC(=O)CC[C@H](NC(=O)CCCCCCCCCCCCCCCCCCC(=O)O)C(=O)O)C(=O)N[C@@H](CCCNC(=N)N)C(=O)N[C@@H]([C@@H](C)O)C(=O)N[C@@H](C)C(=O)N[C@@H]([C@@H](C)O)C(=O)N1)[C@@H](C)O)C(=O)N[C@@H](CC(C)C)C(=O)N1CCC[C@H]1C(=O)N1CCC[C@H]1C(=O)N[C@H](C(=O)N[C@@H](CC(N)=O)C(=O)N[C@H](C(=O)NCC(=O)N[C@@H](CO)C(=O)N[C@@H](CC(N)=O)C(=O)N[C@H](C(=O)N[C@@H](Cc1ccc(O)cc1)C(N)=O)[C@@H](C)O)C(C)C)[C@@H](C)O [compound 22] ({C20 diacid-γGlu}-HHHCRTATCATQRLAEFLHHSSNNFGPILPPTNVGSNTY-NH2; disulfide 4-9 (inferred); C-terminus assumed)	26	5		
CC[C@H](C)[C@H](NC(=O)[C@@H]1CCCN1C(=O)CNC(=O)[C@H](Cc1ccccc1)NC(=O)[C@H](CC(N)=O)NC(=O)[C@H](CC(N)=O)NC(=O)[C@H](CO)NC(=O)[C@H](CO)NC(=O)[C@H](Cc1c[nH]cn1)NC(=O)[C@H](Cc1c[nH]cn1)NC(=O)[C@H](CC(C)C)NC(=O)[C@H](Cc1ccccc1)NC(=O)[C@H](CCC(=O)O)NC(=O)[C@H](C)NC(=O)[C@H](CC(C)C)NC(=O)[C@H](CCCNC(=N)N)NC(=O)[C@H](CCC(N)=O)NC(=O)[C@@H](NC(=O)[C@H](C)NC(=O)[C@@H]1CSSC[C@H](NC(=O)[C@H](Cc2c[nH]cn2)NC(=O)CC[C@H](NC(=O)CCCCCCCCCCCCCCCCCCC(=O)O)C(=O)O)C(=O)N[C@@H](CC(N)=O)C(=O)N[C@@H]([C@@H](C)O)C(=O)N[C@@H](C)C(=O)N[C@@H]([C@@H](C)O)C(=O)N1)[C@@H](C)O)C(=O)N[C@@H](CC(C)C)C(=O)N1CCC[C@H]1C(=O)N1CCC[C@H]1C(=O)N[C@H](C(=O)N[C@@H](CC(N)=O)C(=O)N[C@H](C(=O)NCC(=O)N[C@@H](CO)C(=O)N[C@@H](CC(N)=O)C(=O)N[C@H](C(=O)N1CCC[C@H]1C(N)=O)[C@@H](C)O)C(C)C)[C@@H](C)O [Example 84, N-alpha-[(S)-4-Carboxy-4-(19-carboxynonadecanoylamino)butyryl]-[His1, Glu14, His17, Pro37]-pramlintide] ({C20 diacid-γGlu}-HCNTATCATQRLAEFLHHSSNNFGPILPPTNVGSNTP-NH2; disulfide 2-7)	68	67		
CC[C@H](C)[C@H](NC(=O)[C@@H]1CCCN1C(=O)CNC(=O)[C@H](Cc1ccccc1)NC(=O)[C@H](CC(N)=O)NC(=O)[C@H](CC(N)=O)NC(=O)[C@H](CO)NC(=O)[C@H](CO)NC(=O)[C@H](Cc1c[nH]cn1)NC(=O)[C@H](Cc1c[nH]cn1)NC(=O)[C@H](CC(C)C)NC(=O)[C@H](Cc1ccccc1)NC(=O)[C@H](CCC(=O)O)NC(=O)[C@H](C)NC(=O)[C@H](CC(C)C)NC(=O)[C@H](CCCNC(=N)N)NC(=O)[C@H](CCC(N)=O)NC(=O)[C@@H](NC(=O)[C@H](C)NC(=O)[C@@H]1CSSC[C@H](NC(=O)[C@H](CCCCN)NC(=O)CC[C@H](NC(=O)CCCCCCCCCCCCCCCCC(=O)O)C(=O)O)C(=O)N[C@@H](CC(N)=O)C(=O)N[C@@H]([C@@H](C)O)C(=O)N[C@@H](C)C(=O)N[C@@H]([C@@H](C)O)C(=O)N1)[C@@H](C)O)C(=O)N[C@@H](CC(C)C)C(=O)N1CCC[C@H]1C(=O)N1CCC[C@H]1C(=O)N[C@H](C(=O)N[C@@H](CC(N)=O)C(=O)N[C@H](C(=O)NCC(=O)N[C@@H](CO)C(=O)N[C@@H](CC(N)=O)C(=O)N[C@H](C(=O)N[C@@H](Cc1ccc(O)cc1)C(N)=O)[C@@H](C)O)C(C)C)[C@@H](C)O [compound 46] ({C18 diacid-γGlu}-KCNTATCATQRLAEFLHHSSNNFGPILPPTNVGSNTY-NH2; disulfide 2-7 (inferred); C-terminus assumed)	54	27		
CC[C@H](C)[C@H](NC(=O)[C@@H]1CCCN1C(=O)CNC(=O)[C@H](Cc1ccccc1)NC(=O)[C@H](CC(N)=O)NC(=O)[C@H](CC(N)=O)NC(=O)[C@H](CO)NC(=O)[C@H](CO)NC(=O)[C@H](Cc1c[nH]cn1)NC(=O)[C@H](Cc1c[nH]cn1)NC(=O)[C@H](CC(C)C)NC(=O)[C@H](Cc1ccccc1)NC(=O)[C@H](CCC(=O)O)NC(=O)[C@H](C)NC(=O)[C@H](CC(C)C)NC(=O)[C@H](CCCNC(=N)N)NC(=O)[C@H](CCC(N)=O)NC(=O)[C@@H](NC(=O)[C@H](C)NC(=O)[C@@H]1CSSC[C@H](NC(=O)[C@H](Cc2c[nH]cn2)NC(=O)[C@H](Cc2c[nH]cn2)NC(=O)[C@H](Cc2c[nH]cn2)NC(=O)CC[C@H](NC(=O)CCCCCCCCCCCCCCCCCCC(=O)O)C(=O)O)C(=O)N[C@@H](CC(N)=O)C(=O)N[C@@H]([C@@H](C)O)C(=O)N[C@@H](C)C(=O)N[C@@H]([C@@H](C)O)C(=O)N1)[C@@H](C)O)C(=O)N[C@@H](CC(C)C)C(=O)N1CCC[C@H]1C(=O)N1CCC[C@H]1C(=O)N[C@H](C(=O)N[C@@H](CC(N)=O)C(=O)N[C@H](C(=O)NCC(=O)N[C@@H](CO)C(=O)N[C@@H](CC(N)=O)C(=O)N[C@H](C(=O)N[C@@H](Cc1ccc(O)cc1)C(N)=O)[C@@H](C)O)C(C)C)[C@@H](C)O [Example 11, N-alpha-[(S)-4-Carboxy-4-(19-carboxynonadecanoylamino)butyryl]-His-His-[His1,Glu14,His17]-pramlintide] ({C20 diacid-γGlu}-HHHCNTATCATQRLAEFLHHSSNNFGPILPPTNVGSNTY-NH2; disulfide 4-9)			87	92
CC[C@H](C)[C@H](NC(=O)[C@@H]1CCCN1C(=O)CNC(=O)[C@H](Cc1ccccc1)NC(=O)[C@H](CC(N)=O)NC(=O)[C@H](CC(N)=O)NC(=O)[C@H](CO)NC(=O)[C@H](CO)NC(=O)[C@H](Cc1c[nH]cn1)NC(=O)[C@H](Cc1c[nH]cn1)NC(=O)[C@H](CC(C)C)NC(=O)[C@H](Cc1ccccc1)NC(=O)[C@H](CCC(=O)O)NC(=O)[C@H](C)NC(=O)[C@H](CC(C)C)NC(=O)[C@H](CCCNC(=N)N)NC(=O)[C@H](CCC(N)=O)NC(=O)[C@@H](NC(=O)[C@H](C)NC(=O)[C@@H]1CSSC[C@H](NC(=O)[C@H](Cc2c[nH]cn2)NC(=O)CC[C@H](NC(=O)CCCCCCCCCCCCCCCCCCC(=O)O)C(=O)O)C(=O)N[C@@H](CC(N)=O)C(=O)N[C@@H]([C@@H](C)O)C(=O)N[C@@H](C)C(=O)N[C@@H]([C@@H](C)O)C(=O)N1)[C@@H](C)O)C(=O)N[C@@H](CC(C)C)C(=O)N1CCC[C@H]1C(=O)N1CCC[C@H]1C(=O)N[C@H](C(=O)N[C@@H](CC(N)=O)C(=O)N[C@H](C(=O)NCC(=O)N[C@@H](CO)C(=O)N[C@@H](CC(N)=O)C(=O)N[C@H](C(=O)N[C@@H](Cc1ccc(O)cc1)C(N)=O)[C@@H](C)O)C(C)C)[C@@H](C)O [compound 18] ({C20 diacid-γGlu}-HCNTATCATQRLAEFLHHSSNNFGPILPPTNVGSNTY-NH2; disulfide 2-7)	40	32		
